pIC50: −log10 of the molar value.
Tests used:
[1] = Inhibition of hypoxia-induced HIF1alpha/P300-CBP interaction mediated gene transcriptional activity in human HeLa cells co-transfected with luciferase reporter plasmid containing HRE and pRL-CMV vector incubated for 12 hrs under hypoxic condition by HRE-dependent dual luciferase reporter gene assay; assay type: cell-based
[2] = test system: HeLa; test: Antiproliferative activity against human HeLa cells assessed as reduction in cell proliferation measured after 48 hrs by MTT assay; assay type: functional, cell-based
[3] = test system: HCT-116; test: Antiproliferative activity against human HCT-116 cells assessed as reduction in cell proliferation measured after 2 days by MTT assay; assay type: functional, cell-based; conditions: HCT-116, 48 h
[4] = test system: DMS-114; test: Antiproliferative activity against human DMS-114 cells assessed as reduction in cell proliferation measured after 2 days by MTT assay; assay type: functional, cell-based; conditions: DMS-114, 48 h
[5] = test system: HeLa; test: Cytotoxicity against human HeLa cells co-transfected with luciferase reporter plasmid containing HRE and pRL-CMV vector incubated for 12 hrs under hypoxic condition by MTT assay; assay type: cell-based

| SMILES | pIC50 [1] | pIC50 [2] | pIC50 [3] | pIC50 [4] | pIC50 [5] |
| --- | --- | --- | --- | --- | --- |
| CC(C)CCN1C/C=C/CN(CCCc2ccccc2)C(=O)CN2CCC[C@H]2C(=O)N[C@@H](CC(C)C)C1=O | 4.86 | 4.27 | 4.77 | 4.68 | < 4.30 |
| CC(C)CCC(=O)N1CCCCN(CCC(C)C)C(=O)[C@H](CC(C)C)NC(=O)[C@H](C)NC(=O)C1 | < 4.48 | < 4.00 | 4.08 | < 4.05 | < 4.30 |
| CC(C)CCN1C/C=C/CN(CCCc2ccccc2)C(=O)CN[C@@H](C)C(=O)N[C@@H](CC(C)C)C1=O | 4.79 | 4.01 | 4.60 | 4.49 | < 4.30 |
| CC(C)CCN1CCCCCN(CCCc2ccccc2)C(=O)CN[C@@H](C)C(=O)N[C@@H](CC(C)C)C1=O | 5.06 | 4.26 | 4.46 | 4.31 | < 4.30 |
| CC(C)CCN1CCCCN(CCCc2ccccc2)C(=O)CN2CCC[C@H]2C(=O)N[C@@H](CC(C)C)C1=O | 5.02 | 4.18 | 4.91 | 4.76 | < 4.30 |
| CC(C)CCN1C/C=C/CCN(CCCc2ccccc2)C(=O)CN[C@@H](C)C(=O)N[C@@H](CC(C)C)C1=O | 4.86 | 4.15 | 4.48 | 4.31 | < 4.30 |
| CC(C)CCN1CCCCN(CCCc2ccccc2)C(=O)CN[C@@H](C)C(=O)N[C@@H](CC(C)C)C1=O | 5.00 | 4.23 | 4.46 | 4.35 | < 4.30 |
| CC(C)CCC(=O)N1C/C=C/CN(CCC(C)C)C(=O)[C@H](CC(C)C)NC(=O)[C@H](C)NC(=O)C1 | < 4.48 | < 4.00 | < 4.05 | < 4.05 | < 4.30 |
| OCc1ccc(-c2nn(Cc3ccccc3)c3ccccc23)o1 | 6.00 | – | – | – | – |

From ChEMBL document CHEMBL4680325, “Design and synthesis of 14 and 15-membered macrocyclic scaffolds exhibiting inhibitory activities of hypoxia-inducible factor 1α” (Bioorg Med Chem, 2021)
